Laboratory results from patent US20080275018A1, “ANTIBACTERIAL AMIDE-MACROCYCLES V” (AiCuris GmbH & Co. KG, priority 2005, published 2008).

Target: S. aureus 133 Translation
Assay: S. aureus in vitro transcription-translation assay (firefly luciferase, S30 extract)
Assay type: biochemical
Conditions: 50% inhibition of the translation of firefly luciferase
Text: For the construction of a reporter plasmid which can be used in an in vitro transcription-translation assay from S. aureus the plasmid pBESTluc (Promega Corporation, USA) is used. The E. coli tac promoter present in this plasmid in front of the firefly luciferase is replaced by the capA1 promoter with corresponding Shine-Dalgarno sequence from S. aureus. The primers CAPFor 5′-[…]-[…] GCCA-3′ and CAPRev 5′-[…]-3′ are used for this. The primer CAPFor contains the capA1 promoter, the ribosome binding site and the 5′ region of the luciferase gene. After PCR using pBESTluc as template it is possible to isolate a PCR product which contains the firefly luciferase gene with the fused capA1 promoter. This is, after restriction with ClaI and HindIII, ligated into the vector pBESTluc which has likewise been digested with ClaI and HindIII. The resulting plasmid pla can be replicated in E. coli and be used as template in the S. aureus in vitro transcription-translation test.
Six litres of BHI medium are inoculated with a 250 ml overnight culture of an S. aureus Strain and allowed to grow at 37° C. until the OD600 nm is 2-4. The cells are harvested by centrifugation and washed in 500 ml of cold buffer A (10 mM Tris acetate, pH 8.0, 14 mM magnesium acetate, 1 mM DTT, 1 M KCl). After renewed centrifugation, the cells are washed in 250 ml of cold buffer A with 50 mM KCl, and the resulting pellets are frozen at −20° C. for 60 min. The pellets are thawed on ice in 30 to 60 min and taken up to a total volume of 99 ml in buffer B (10 mM Tris acetate, pH 8.0, 20 mM magnesium acetate, 1 mM DTT, 50 mM KCl). 1.5 ml portions of lysostaphin (0.8 mg/ml) in buffer B are provided in 3 precooled centrifuge cups and each mixed with 33 ml of the cell suspension. The samples are incubated at 37° C., shaking occasionally, for 45 to 60 min, before 150 μl of a 0.5 M DTT solution are added. The lysed cells are centrifuged at 30 000×g and 4° C. for 30 min. The cell pellet is taken up in buffer B and then centrifuged again under the same conditions, and the collected supernatants are combined. The supernatants are centrifuged again under the same conditions, and 0.25 volumes of buffer C (670 mM Tris acetate, pH 8.0, 20 mM magnesium acetate, 7 mM Na3 phosphoenolpyruvate, 7 mM DTT, 5.5 mM ATP, 70 μM amino acids (complete from Promega), 75 μg of pyruvate kinase (Sigma, Germany)/ml are added to the upper ⅔ of the supernatant. The samples are incubated at 37° C. for 30 min. The supernatants are dialysed against 2 l of dialysis buffer (10 mM Tris acetate, pH 8.0, 14 mM magnesium acetate, 1 mM DTT, 60 mM potassium acetate) in a dialysis tube with a 3500 Da cut-off with one buffer change at 4° C. overnight. The dialysate is concentrated to a protein concentration of about 10 mg/ml by
covering the dialysis tube with cold PEG 8000 powder (Sigma, Germany) at 4° C. The S30 extracts can be stored in aliquots at −70° C.
The inhibition of protein biosynthesis of the compounds can be shown in an in vitro transcription-translation assay. The assay is based on the cell-free transcription and translation of firefly luciferase using the reporter plasmid pla as template and cell-free S30 extracts obtained from S. aureus. The activity of the resulting luciferase can be detected by luminescence measurement.
The amount of S30 extract or plasmid pla to be employed must be tested anew for each preparation in order to ensure an optimal concentration in the test. […] of the substance to be tested, dissolved in 5% DMSO, are introduced into an MTP. Then […] of a suitably concentrated plasmid solution pla are added. […]

How did the IC50 turn out when `NC[C@H](O)C[C@@H]1NC(=O)[C@@H](N)Cc2cc(ccc2O)-c2ccc(O)c(c2)C[C@@H](C(=O)O)NC1=O` [Biphenomycin B, biphenomycin B, reference compound] was run?
Its IC50 is 1.5 µM.
